Test results from patent US20060263895A1, “Method for monitoring the stereoselectivity and relative rate of organic chemical reactions” (priority 2005, published 2006).

What was measured:
[1] = biological target: T1, Lactobacillus kefir alcohol dehydrogenase (LKADH) (Lentilactobacillus kefiri, UniProt Q6WVP7); assay: LKADH oxidation of 1,2-hexenediol; type: biochemical
T1 sequence (Q6WVP7 1-252): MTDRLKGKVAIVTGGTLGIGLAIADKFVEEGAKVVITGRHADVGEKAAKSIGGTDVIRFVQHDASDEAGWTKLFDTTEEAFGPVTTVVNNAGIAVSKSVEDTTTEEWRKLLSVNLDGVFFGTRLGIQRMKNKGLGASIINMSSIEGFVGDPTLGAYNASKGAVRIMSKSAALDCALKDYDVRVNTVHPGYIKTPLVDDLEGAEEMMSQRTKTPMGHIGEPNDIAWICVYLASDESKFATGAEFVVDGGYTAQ
Description: (§1) The following examples illustrate the invention with respect to an in situ enzymatic screening (ISES) method to predict the enantioselectivity of chiral catalysts for the hydrolytic kinetic resolution (HKR) of (±) hexene oxide. Above, it was shown that the method of the invention may be employed to predict the enantioselectivity and relative rate of a catalyst library for HKR of (±)-propylene oxide using horse liver alcohol dehydrogenase (HLADH) and Thermoalaerobium brockii alcohol dehydrogenase (TBADH).

HLADH = biological target: T2, HLADH (Equus caballus, UniProt P00327); assay: HLADH oxidation of 1,2-hexenediol; type: biochemical, horse
T2 construct: purchased; host or cells: equine liver
Description: as §1

[2] = biological target: T3, alcohol dehydrogenase from Thermoanaerobium brockii (TBADH) (Thermoanaerobacter brockii, UniProt P14941); settings: read-out: reported Km value for NADP+ with TBADH; cited from earlier work
T3 construct: purchased
T3 sequence (P14941 1-352): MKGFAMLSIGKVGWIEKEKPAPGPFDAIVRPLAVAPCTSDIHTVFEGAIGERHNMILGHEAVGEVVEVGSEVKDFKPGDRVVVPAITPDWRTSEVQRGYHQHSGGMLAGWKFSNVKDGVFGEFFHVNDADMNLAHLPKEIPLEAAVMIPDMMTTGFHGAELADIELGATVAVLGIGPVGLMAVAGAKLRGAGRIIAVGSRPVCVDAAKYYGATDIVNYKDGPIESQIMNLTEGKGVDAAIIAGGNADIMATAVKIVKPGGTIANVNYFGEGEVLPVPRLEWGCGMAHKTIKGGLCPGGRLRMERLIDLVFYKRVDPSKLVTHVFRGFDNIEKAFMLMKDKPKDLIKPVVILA

[3] = Catalyst performance in the ISES cuvette (biphasic HKR), ee of isolated diol by chiral HPLC; settings: diol isolated from merged ISES cuvettes
Procedure: For several catalysts, control experiments were run to assess whether running the HKR under biphasic conditions influences the enantioselectivity of these Co(III)-salen HKR catalysts. In such cases, parallel duplicate ‘double-cuvette’ runs were chosen (i.e. two HLADH cuvettes and two TBADH cuvettes for a single catalyst). Following the ISES runs, the contents of all four reporting cuvettes were merged. Unreacted epoxide was rapidly removed under Ar stream. Following dilution with CH2Cl2 (˜50 mL), sodium sulfate was added to adsorb remaining water. The resulting organic solution was filtered and the filter cake washed with CH2Cl2 (2×20 mL). Following evaporation of the solvent, the crude diols were derivatized directly with p-bromobenzoyl imidazole to yield the 1,2-propanediol bis(pbromobenzoate) esters, which were then purified by silica gel chromatography to estimate diol yields. Enantiomeric excesses were determined using chiral HPLC, as before. […] Indeed, the ee's seen from diol isolated directly out of the cuvette generally appear slightly higher than those obtained under ‘Jacobsen conditions,’ probably reflecting the shorter reaction times employed in the ISES experiment.

[4] = HKR of (±)-propylene oxide under standard neat 'Jacobsen conditions' (NMR conversion, chiral HPLC ee); settings: for NMR conv. (time): 3 h; for NMR conv. (time) / % ee (HPLC): loading 0.25 mol %; for % ee (HPLC) / % ee of the 1,2-propanediol product, as observed by chiral HPLC (lower number): + = (S), − = (R); for % ee of the 1,2-propanediol product, as observed by chiral HPLC (lower number): neat propylene oxide, 0.55 equiv. H2O, 0.25 mol % catalyst, 3 h reaction time
Procedure, shortened: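 Co(III)-salen catalyst (0.25 mol %) with neat (±)-propylene oxide and water (0.55 equiv.), added at 0° C., then stirred at room temperature, usually 3 h (longer if <5% conversion). Conversion by 1H NMR; diol isolated, derivatized to bis(p-bromobenzoate), ee by chiral HPLC.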

[5] = Double cuvette-ISES (in situ enzymatic screening) of Co(III)-salen mediated HKR of (±)-propylene oxide
Procedure, shortened: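 Co(III)-salen catalysts (0.25 mol %) in CHCl3 with (±)-propylene oxide (7.2 M in organic layer), overlaid with aqueous reporting layers in 50 mM sodium pyrophosphate, final pH 8.6. Reporters: 0.35 U HLADH/7.2 mM NAD+ ((S)-diol) or 0.35 U TBADH/2.2 mM NADP+ ((R)-diol). A340 increase gives enantioselectivity and relative rate estimates.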

[6] = [total 1,2-propanediol] in aqueous ISES layer by 1H NMR
Procedure: The concentration of 1,2-propanediol in the aqueous layer was estimated under typical ISES conditions using 1H NMR spectroscopy. The bilayer was prepared as usual for double cuvette-ISES (Section V), but for the substitution of D2O for H2O in the buffer, and the elimination of the dehydrogenase enzymes. After 15 min, the aqueous layer (300 μL of 500 μL total) was withdrawn and mixed with a fresh solution of imidazole of known concentration (also 300 μL in D2O), as an internal concentration standard. Accumulation of the 1H NMR spectrum, followed by integration and quantitation, provided an experimental measure of [total diol] in the aqueous reporting layer at t=15 minutes for the catalyst under investigation. The observed diol concentrations for ten catalysts examined in this way are collected in Table S6, below. These have been normalized to the value for the catalyst derived from salen 3b (arbitrarily assigned a rate of 1.0).

[7] = HKR of (±)-hexene oxide under neat conditions; settings: in 30 min, 2.0 mol % catalyst, 25° C.
Procedure: Co(III)-salen (acetate) catalysts were evaluated for HKR of (±)-hexene oxide, under neat conditions, similar to those described by Jacobsen and co-workers (Schaus, S. E.; Brandes, B. D.; Larrow, J. F.; Tokunaga, M.; Hansen, K. B.; Gould, A. E.; Furrow, M. E.; Jacobsen, E. N. J. Am. Chem. Soc. 2002, 124, 1307-1315). Reactions were stopped after 0.5 h, to obtain the enantiopurity of the 1,2-hexenediol produced at relatively early reaction times, for comparison with biphasic ISES predictions.
A typical procedure follows: To the Co(III)-salen catalyst derived from 1e (16.6 mg, 23.2 μmol, 2.0 mol %) at rt was added (±)-hexene oxide (116 mg, 1.16 mmols). The mixture was cooled to 0° C. Then water (11.4 μL, 0.64 mmols, 0.55 equiv.) was added and the flask was capped tightly and stirred 25° C. for 30 min. The progress of the reaction was estimated by ^1H NMR, the reaction mixture was cooled to 0° C., an aliquot was then withdrawn and dissolved in CDCl3 at 0° C. bath. After distilling over the unreacted epoxide, the diol product was collected, and then itself distilled again by Kugelrohr. When the reaction conversion was more than 50% in 30 min, 15 min reaction time was used (for catalyst 1e) to get the product diol.
To determine ee, the isolated diol was derivatized using p-bromobenzoyl imidazole (2.2 equiv.) in THF in the presence of NaH (4 equiv.) at rt for 5 min. […]

[8] = reaction stopped at the time given (mostly 3 h)
[9] = bilayer of pH 8.6 buffer over 7.2 M epoxide in CHCl3, 0.25 mol % catalyst, 15-35 min, + = (S), − = (R)

T2 sequence (P00327 whole entry): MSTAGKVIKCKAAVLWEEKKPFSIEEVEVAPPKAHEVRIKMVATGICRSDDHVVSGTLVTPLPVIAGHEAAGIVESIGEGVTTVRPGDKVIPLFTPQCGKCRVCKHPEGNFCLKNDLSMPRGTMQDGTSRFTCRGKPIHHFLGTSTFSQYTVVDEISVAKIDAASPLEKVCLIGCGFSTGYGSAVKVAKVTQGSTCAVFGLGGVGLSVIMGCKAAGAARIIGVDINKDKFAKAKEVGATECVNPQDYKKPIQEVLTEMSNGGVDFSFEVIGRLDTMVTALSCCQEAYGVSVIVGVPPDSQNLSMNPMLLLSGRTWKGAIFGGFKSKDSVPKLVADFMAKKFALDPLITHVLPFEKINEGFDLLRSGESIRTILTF

Compound	% ee measured biphasic conds. [3]	NMR conv. (time) [4]	% ee (HPLC) [4, 8]	% ee measured neat 'Jacobsen conditions' [4]	% ee of the 1,2-propanediol product, as observed by chiral HPLC (lower number) [4]	% ee predicted double cuvet-ISES ([5]; bilayer)	% ee of the 1,2-propanediol product, as predicted by double-cuvette ISES (upper number) [5, 9]	also measured
CCCCC(O)CO (stereo not drawn)	–	–	–	–	–	–	–	selectivity of LKADH for the oxidation of 1,2-hexenediol [1]: high (S)-selectivity; selectivity of HLADH for the oxidation of 1,2-hexenediol (HLADH): modest (S)-selectivity
NC(=O)c1ccc[n+]([C@@H]2O[C@H](COP(=O)([O-])OP(=O)(O)OC[C@H]3O[C@@H](n4cnc5c(N)ncnc54)[C@H](OP(=O)(O)O)[C@@H]3O)[C@@H](O)[C@H]2O)c1 [NADP+]	–	–	–	–	–	–	–	Km [2]: 13 µM
CC(C)(C)c1cc(C=NC[C@H](Cc2cccc3ccccc23)N=Cc2cc(C(C)(C)C)cc(C(C)(C)C)c2O)c(O)c(C(C)(C)C)c1 [Salen 4a, N,N′-Bis(3′,5′-di-tert-butylsalicylidene)-(1S)-(α-naphthylmethyl)-1,2-ethylenediamine]	82 % ee	35 (3 h) %	+76 (S) % ee	76 % ee	+76 % ee	77 % ee	+77 % ee	–
CO[C@H]1[C@@H]2OC(C)(C)O[C@@H]2COC1(CN=Cc1cc(C(C)(C)C)cc(C(C)(C)C)c1O)N=Cc1cc(C(C)(C)C)cc(C(C)(C)C)c1O (stereo partly drawn) [Salen 7a, N,N′-Bis(3′,5′-di-tert-butylsalicylidene)-3-O-methyl-4,5-O-isopropylidene-1,2-dideoxy-Dfructopyranosyl-1,2-diamine]	−55 % ee	–	–	−59 % ee	–	−33 % ee	–	NMR conv. (time) ([4]; listed as 7a*): 7 (3 h) %; % ee (HPLC) ([4]; reaction stopped at the time printed in the row (mostly 3 h), listed as 7a*): −59 (R) % ee; % ee of the 1,2-propanediol product, as observed by chiral HPLC (lower number) ([4]; listed as 7a*): −59 % ee; % ee of the 1,2-propanediol product, as predicted by double-cuvette ISES (upper number) ([5]; bilayer of pH 8.6 buffer over 7.2 M epoxide in CHCl3, 0.25 mol % catalyst, 15-35 min, + = (S), − = (R), listed as 7a*): −33 % ee
N,N′-Bis(3′,5′-di-tert-butylsalicylidene[1R-(1α,2α,5α)]-2-amino-7,7-dimethyl-2-bicyclo[3.3.1]heptane-ethanamine [Salen 1a]	87 % ee	12 (3 h) %	+72 (S) % ee	72 % ee	+72 % ee	56 % ee	+56 % ee	[diol] (mM) @ 15 min ([6]; aqueous ISES layer, 1H NMR, t = 15 min): 19 mM; Norm. ([6]; normalized to the catalyst derived from salen 3b (rate 1.0)): 0.20
N,N′-Bis(3′,5′-diiodosalicylidene)-[1R-(1α,2α,5α)]-2-amino-7,7-dimethyl-2-bicyclo[3.3.1]heptaneethanamine [Salen 1e]	–	–	+28 (S) % ee	–	+28 % ee	–	–	reaction conversion [7]: more than 50%; % ee of the 1,2-propanediol product, as predicted by double-cuvette ISES (upper number) ([5]; catalyst tested at 0.05 mol %, bilayer): +47 % ee
